From patent publication US11708348B2, “Protease inhibitors for treatment of coronavirus infections” (The Scripps Research Institute, priority 2021, dated 2023)
Read-outs that look alike come from different tables or passages of the source.

Tested on: SARS-CoV-2 strain USA-WA1/2020
Assay: microbe, parasite or virus in culture
Format: cell-based
Conditions: Severe acute respiratory syndrome coronavirus 2, HeLa-ACE2, 24 h, read-out: EC50, uM (Hela)
[1] = HeLa-ACE2 cells, SARS-CoV-2 infection, 24 h

Structure (SMILES) | EC50 [1] [µM] | EC50 [µM]
O=C1NCC[C@H]1C[C@H](NC(=O)[C@@H]1CC2(CC2)CN1C(=O)CC(F)(F)C(F)F)C(=O)COC(F)(F)F [Compound 684, (S)-N-((S)-3-oxo-1-((S)-2-oxopyrrolidin-3-yl)-4-(trifluoromethoxy)butan-2-yl)-5-(3,3,4,4-tetrafluorobutanoyl)-5-azaspiro[2.4]heptane-6-carboxamide] | 0.05 to 0.2 | 
O=C1NCC[C@H]1C[C@H](NC(=O)[C@@H]1CC2(CC2)CN1C(=O)c1ccccc1C(F)(F)F)C(=O)COC(F)(F)F [Compound 686, (S)-N-((S)-3-oxo-1-((S)-2-oxopyrrolidin-3-yl)-4-(trifluoromethoxy)butan-2-yl)-5-(2-(trifluoromethyl)benzoyl)-5-azaspiro[2.4]heptane-6-carboxamide] | < 0.05 | 
O=C1NCC[C@H]1C[C@H](NC(=O)[C@@H]1CC2(CC2)CN1C(=O)c1ccc2c(c1)OC(F)(F)O2)C(=O)COC(F)(F)F [Compound 687, (S)-5-(2,2-difluorobenzo[d][1,3]dioxole-5-carbonyl)-N-((S)-3-oxo-1-((S)-2-oxopyrrolidin-3-yl)-4-(trifluoromethoxy)butan-2-yl)-5-azaspiro[2.4]heptane-6-carboxamide] | < 0.05 | 
CCC(=O)N1CC2(CC2)C[C@H]1C(=O)N[C@@H](C[C@@H]1CCNC1=O)C(=O)COC(F)(F)F [Compound 688, (S)-N-((S)-3-oxo-1-((S)-2-oxopyrrolidin-3-yl)-4-(trifluoromethoxy)butan-2-yl)-5-propionyl-5-azaspiro[2.4]heptane-6-carboxamide] | 0.05 to 0.2 | 
C=CCC(=O)N1CC2(CC2)C[C@H]1C(=O)N[C@@H](C[C@@H]1CCNC1=O)C(=O)COC(F)(F)F [Compound 689, (S)-5-(but-3-enoyl)-N-((S)-3-oxo-1-((S)-2-oxopyrrolidin-3-yl)-4-(trifluoromethoxy)butan-2-yl)-5-azaspiro[2.4]heptane-6-carboxamide] | 0.05 to 0.2 | 
C=CCCC(=O)N1CC2(CC2)C[C@H]1C(=O)N[C@@H](C[C@@H]1CCNC1=O)C(=O)COC(F)(F)F [Compound 690, (S)-N-((S)-3-oxo-1-((S)-2-oxopyrrolidin-3-yl)-4-(trifluoromethoxy)butan-2-yl)-5-(pent-4-enoyl)-5-azaspiro[2.4]heptane-6-carboxamide] | 0.05 to 0.2 | 
CNS(=O)(=O)NCC(=O)N1CC2(CC2)C[C@H]1C(=O)N[C@@H](C[C@@H]1CCNC1=O)C(=O)COC(F)(F)F [Compound 691, (S)-5-((N-methylsulfamoyl)glycyl)-N-((S)-3-oxo-1-((S)-2-oxopyrrolidin-3-yl)-4-(trifluoromethoxy)butan-2-yl)-5-azaspiro[2.4]heptane-6-carboxamide] | 0.5 to 1 | 
CN(C)S(=O)(=O)NCC(=O)N1CC2(CC2)C[C@H]1C(=O)N[C@@H](C[C@@H]1CCNC1=O)C(=O)COC(F)(F)F [Compound 692, (S)-5-((N,N-dimethylsulfamoyl)glycyl)-N-((S)-3-oxo-1-((S)-2-oxopyrrolidin-3-yl)-4-(trifluoromethoxy)butan-2-yl)-5-azaspiro[2.4]heptane-6-carboxamide] | 0.2 to 0.5 | 
CN(C)S(=O)(=O)N(C)CC(=O)N1CC2(CC2)C[C@H]1C(=O)N[C@@H](C[C@@H]1CCNC1=O)C(=O)COC(F)(F)F [Compound 693, (S)-5-(N-(N,N-dimethylsulfamoyl)-N-methylglycyl)-N-((S)-3-oxo-1-((S)-2-oxopyrrolidin-3-yl)-4-(trifluoromethoxy)butan-2-yl)-5-azaspiro[2.4]heptane-6-carboxamide] | 0.2 to 0.5 | 
O=C1NCC[C@H]1C[C@H](NC(=O)[C@@H]1CC2(CC2)CN1C(=O)c1ccccc1)C(=O)COC(F)(F)F [Compound 694, (S)-5-benzoyl-N-((S)-3-oxo-1-((S)-2-oxopyrrolidin-3-yl)-4-(trifluoromethoxy)butan-2-yl)-5-azaspiro[2.4]heptane-6-carboxamide] | 0.05 to 0.2 | 
CC(C)Cn1cc(C(=O)N2CC3(CC3)C[C@H]2C(=O)N[C@@H](C[C@@H]2CCNC2=O)C(=O)COC(F)(F)F)nn1 [Compound 695, (S)-5-(1-isobutyl-1H-1,2,3-triazole-4-carbonyl)-N-((S)-3-oxo-1-((S)-2-oxopyrrolidin-3-yl)-4-(trifluoromethoxy)butan-2-yl)-5-azaspiro[2.4]heptane-6-carboxamide] | 0.05 to 0.2 | 
CC(C)C[C@@H](O)C(=O)N1CCC[C@H]1C(=O)N[C@@H](C[C@@H]1CCNC1=O)C(=O)COC(F)(F)F [Compound 696, (S)-1-((R)-2-hydroxy-4-methylpentanoyl)-N-((S)-3-oxo-1-((S)-2-oxopyrrolidin-3-yl)-4-(trifluoromethoxy)butan-2-yl)pyrrolidine-2-carboxamide] |  | 0.05 to 0.2
C[C@@H](O)C(=O)N1CC2(CC2)C[C@H]1C(=O)N[C@@H](C[C@@H]1CCNC1=O)C(=O)COC(F)(F)F [Compound 697, (S)-5-((R)-2-hydroxypropanoyl)-N-((S)-3-oxo-1-((S)-2-oxopyrrolidin-3-yl)-4-(trifluoromethoxy)butan-2-yl)-5-azaspiro[2.4]heptane-6-carboxamide] | 0.05 to 0.2 | 
O=C1NCC[C@H]1C[C@H](NC(=O)[C@@H]1CC2(CC2)CN1C(=O)CO)C(=O)COC(F)(F)F [Compound 698, (S)-5-(2-hydroxyacetyl)-N-((S)-3-oxo-1-((S)-2-oxopyrrolidin-3-yl)-4-(trifluoromethoxy)butan-2-yl)-5-azaspiro[2.4]heptane-6-carboxamide] | 0.05 to 0.2 | 
O=C1NCC[C@H]1C[C@H](NC(=O)[C@@H]1CC2(CC2)CN1C(=O)c1cc(F)cc(F)c1)C(=O)COC(F)(F)F [Compound 699, (S)-5-(3,5-difluorobenzoyl)-N-((S)-3-oxo-l-((S)-2-oxopyrrolidin-3-yl)-4-(trifluoromethoxy)butan-2-yl)-5-azaspiro[2.4]heptane-6-carboxamide] | 0.05 to 0.2 | 
C[C@](O)(C(=O)N1CC2(CC2)C[C@H]1C(=O)N[C@@H](C[C@@H]1CCNC1=O)C(=O)COC(F)(F)F)C(F)(F)F [Compound 700, (S)-N-((S)-3-oxo-1-((S)-2-oxopyrrolidin-3-yl)-4-(trifluoromethoxy)butan-2-yl)-5-((S)-3,3,3-trifluoro-2-hydroxy-2-methylpropanoyl)-5-azaspiro[2.4]heptane-6-carboxamide] | 0.05 to 0.2 | 
O=C1NCC[C@H]1C[C@H](NC(=O)[C@@H]1CC2(CC2)CN1C(=O)CC1CC(F)(F)C1)C(=O)COC(F)(F)F [Compound 701, (S)-5-(2-(3,3-difluorocyclobutyl)acetyl)-N-((S)-3-oxo-1-((S)-2-oxopyrrolidin-3-yl)-4-(trifluoromethoxy)butan-2-yl)-5-azaspiro[2.4]heptane-6-carboxamide] | < 0.05 | 
O=C1NCC[C@H]1C[C@H](NC(=O)[C@@H]1CC2(CC2)CN1C(=O)c1ccc(Cl)cc1F)C(=O)COC(F)(F)F [Compound 702, (S)-5-(4-chloro-2-fluorobenzoyl)-N-((S)-3-oxo-1-((S)-2-oxopyrrolidin-3-yl)-4-(trifluoromethoxy)butan-2-yl)-5-azaspiro[2.4]heptane-6-carboxamide] | 0.05 to 0.2 | 
O=C1NCC[C@H]1C[C@H](NC(=O)[C@@H]1CC2(CC2)CN1C(=O)C(F)(F)F)C(=O)COC(F)(F)F [Compound 703, (S)-N-((S)-3-oxo-1-((S)-2-oxopyrrolidin-3-yl)-4-(trifluoromethoxy)butan-2-yl)-5-(2,2,2-trifluoroacetyl)-5-azaspiro[2.4]heptane-6-carboxamide] |  | 0.2 to 0.5
CC(C)C(=O)N1CC2(CC2)C[C@H]1C(=O)N[C@@H](C[C@@H]1CCNC1=O)C(=O)COC(F)(F)F [Compound 704, (S)-5-isobutyryl-N-((S)-3-oxo-1-((S)-2-oxopyrrolidin-3-yl)-4-(trifluoromethoxy)butan-2-yl)-5-azaspiro[2.4]heptane-6-carboxamide] | 0.05 to 0.2 | 
CCCC(=O)N1CC2(CC2)C[C@H]1C(=O)N[C@@H](C[C@@H]1CCNC1=O)C(=O)COC(F)(F)F [Compound 705, (S)-5-butyryl-N-((S)-3-oxo-1-((S)-2-oxopyrrolidin-3-yl)-4-(trifluoromethoxy)butan-2-yl)-5-azaspiro[2.4]heptane-6-carboxamide] | 0.2 to 0.5 | 
CC(C)CC(=O)N1CC2(CC2)C[C@H]1C(=O)N[C@@H](C[C@@H]1CCNC1=O)C(=O)COC(F)(F)F [Compound 707, (S)-5-(3-methylbutanoyl)-N-((S)-3-oxo-1-((S)-2-oxopyrrolidin-3-yl)-4-(trifluoromethoxy)butan-2-yl)-5-azaspiro[2.4]heptane-6-carboxamide] | 0.05 to 0.2 | 
CCCCCC(=O)N1CC2(CC2)C[C@H]1C(=O)N[C@@H](C[C@@H]1CCNC1=O)C(=O)COC(F)(F)F [Compound 708, (S)-5-hexanoyl-N-((S)-3-oxo-1-((S)-2-oxopyrrolidin-3-yl)-4-(trifluoromethoxy)butan-2-yl)-5-azaspiro[2.4]heptane-6-carboxamide] | 0.05 to 0.2 | 
CC(=O)N[C@@H](CC(C)C)C(=O)N[C@@H](C[C@@H]1CCNC1=O)C(=O)COC(F)(F)F [Compound 709, (S)-2-acetamido-4-methyl-N-((S)-3-oxo-l-((S)-2-oxopyrrolidin-3-yl)-4-(trifluoromethoxy)butan-2-yl)pentanamide] | 0.2 to 0.5 | 
O=C1NCC[C@H]1C[C@H](NC(=O)[C@@H]1CC2(CC2)CN1C(=O)c1ccc(F)cc1F)C(=O)COC(F)(F)F [Compound 710, (S)-5-(2,4-difluorobenzoyl)-N-((S)-3-oxo-l-((S)-2-oxopyrrolidin-3-yl)-4-(trifluoromethoxy)butan-2-yl)-5-azaspiro[2.4]heptane-6-carboxamide] | 0.2 to 0.5 | 
CC1(CC(=O)N2CC3(CC3)C[C@H]2C(=O)N[C@@H](C[C@@H]2CCNC2=O)C(=O)COC(F)(F)F)CCCC1 [Compound 711, (S)-5-(2-(l-methylcyclopentyl)acetyl)-N-((S)-3-oxo-1-((S)-2-oxopyrrolidin-3-yl)-4-(trifluoromethoxy)butan-2-yl)-5-azaspiro[2.4]heptane-6-carboxamide] | < 0.05 | 
CC(C)C(F)(F)CC(=O)N1CC2(CC2)C[C@H]1C(=O)N[C@@H](C[C@@H]1CCNC1=O)C(=O)COC(F)(F)F [Compound 712, (S)-5-(3,3-difluoro-4-methylpentanoyl)-N-((S)-3-oxo-1-((S)-2-oxopyrrolidin-3-yl)-4-(trifluoromethoxy)butan-2-yl)-5-azaspiro[2.4]heptane-6-carboxamide] | < 0.05 | 
